Here are results for 10 compounds from US8980830B2 (priority 2007, dated 2015).

As usually defined, the IC50 is the concentration needed to halve the response being measured. Higher therefore signals weaker potency.

Where two headings read alike, the source gives them in different places. Bridge positions count the residues as written; N and C are the ends. Square brackets hold non-standard residues; d marks the D form. Ends that are not written are not given here. Peptide text beside a SMILES is read from it. * marks the point of attachment. Abu(4-SO3H) = N[C@@H](CCS(=O)(=O)O)C(=O)O; PhLac = O=C(O)[C@@H](O)Cc1ccccc1; Aad = N[C@@H](CCCC(=O)O)C(=O)O; CH2CH2COOH = O=C(O)CC*

The experiment concerns the target Glucagon Receptor (Homo sapiens, UniProt P47871). As to the kind of experiment: cAMP inhibition: antagonism of glucagon-induced cAMP at glucagon receptor. It counts as cell-based. Also on record: expressed in transfected cells; host or cells: HEK293.
[1] abbreviates: Glucagon antagonism IC50 (nM, inhibit 0.2-0.8 nM glucagon), Table 18.

Sequence of Glucagon Receptor (P47871 26-477): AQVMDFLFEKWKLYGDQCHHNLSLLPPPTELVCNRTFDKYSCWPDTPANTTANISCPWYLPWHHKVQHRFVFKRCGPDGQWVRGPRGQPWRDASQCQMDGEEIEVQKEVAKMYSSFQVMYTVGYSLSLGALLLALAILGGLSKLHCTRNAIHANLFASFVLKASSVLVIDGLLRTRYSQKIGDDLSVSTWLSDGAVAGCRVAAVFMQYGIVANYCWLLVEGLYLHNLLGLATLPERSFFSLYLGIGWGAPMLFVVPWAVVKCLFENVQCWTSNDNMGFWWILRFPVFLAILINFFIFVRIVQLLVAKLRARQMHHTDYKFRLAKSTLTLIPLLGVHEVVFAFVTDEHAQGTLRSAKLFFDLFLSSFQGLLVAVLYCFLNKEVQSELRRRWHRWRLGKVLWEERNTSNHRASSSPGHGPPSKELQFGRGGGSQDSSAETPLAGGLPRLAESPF

`CC[C@H](C)[C@H](NC(=O)[C@H](Cc1ccccc1)NC(=O)[C@H](CCC(=O)O)NC(=O)[C@@H]1CCCCNC(=O)CC[C@H](NC(=O)[C@H](CC(=O)O)NC(=O)[C@H](CC(C)C)NC(=O)[C@H](Cc2ccc(O)cc2)NC(=O)[C@H](CCCCN)NC(=O)[C@H](CO)NC(=O)[C@H](Cc2ccc(O)cc2)NC(=O)[C@H](CCC(=O)O)NC(=O)[C@H](CO)NC(=O)[C@@H](NC(=O)[C@H](Cc2ccccc2)NC(=O)[C@@H](NC(=O)CNC(=O)[C@H](CCC(=O)O)NC(=O)[C@H](C)N)[C@@H](C)O)[C@@H](C)O)C(=O)N[C@@H](CCC(N)=O)C(=O)N[C@@H](C)C(=O)N[C@@H](C)C(=O)N1)C(=O)N[C@@H](C)C(=O)N[C@@H](Cc1c[nH]c2ccccc12)C(=O)N[C@@H](CC(C)C)C(=O)N[C@@H](CCSC)C(=O)N[C@@H](CC(=O)O)C(=O)N[C@H](C(N)=O)[C@@H](C)O` [[A2E3, E9, E16K20(Lactam), GLP(23-32)]G(2-29)] (H-AEGTFTSEYSKYLDEQAAKEFIAWLMDT-NH2; lactam 15-19; N-terminus assumed) returned an IC50 under setting [1] of 423 nM. For the same compound, the “character of antagonism (partial antagonist, wrapped cell)” value (Table 18) is “partial”.

Take “[PLA^6, C^8(1.2kDaPEG), E^9]Glucagon(aa6-29)-NH2 ([PhLac]TC(PEG 1.2 kDa)EYSKYLDSRRAQDFVQWLMNT-NH2)”: the “IC50 (nM) (cAMP, inhibit 0.2 mM Glucagon)” value (Table 12) was “no antagonism”.

In the case of “FTSKYSKYLDSRRAQDFVQWLMNT-NH2 [[Lys^9]Glucagon(aa6-29)-NH2]”, the “cAMP pA2” value is given as 6.58 ± 0.60.

Consider `CSCC[C@H](NC(=O)[C@H](CC(C)C)NC(=O)[C@H](Cc1c[nH]c2ccccc12)NC(=O)[C@H](CCC(N)=O)NC(=O)[C@@H](NC(=O)[C@H](Cc1ccccc1)NC(=O)[C@H](CC(=O)O)NC(=O)[C@@H]1CCCCNC(=O)CC[C@H](NC(=O)[C@H](CC(=O)O)NC(=O)[C@H](CC(C)C)NC(=O)[C@H](Cc2ccc(O)cc2)NC(=O)[C@H](CCCCN)NC(=O)[C@H](CO)NC(=O)[C@H](Cc2ccc(O)cc2)NC(=O)[C@H](CCC(=O)O)NC(=O)[C@H](CO)NC(=O)[C@@H](NC(=O)[C@H](Cc2ccccc2)NC(=O)[C@@H](NC(=O)CNC(=O)[C@H](CCC(=O)O)NC(=O)[C@H](C)N)[C@@H](C)O)[C@@H](C)O)C(=O)N[C@@H](CCCNC(=N)N)C(=O)N[C@@H](CCCNC(=N)N)C(=O)N[C@@H](C)C(=O)N1)C(C)C)C(=O)N[C@@H](CC(=O)O)C(=O)N[C@H](C(N)=O)[C@@H](C)O` [[A2E3, E16K20(Lactam),D28]G(2 ~ 29)], for which half-maximal inhibition under setting [1] (IC50) was put at 63.2 ± 2.3 nM.

On to `CSCC[C@H](NC(=O)[C@H](CC(C)C)NC(=O)[C@H](Cc1c[nH]c2ccccc12)NC(=O)[C@H](CCC(N)=O)NC(=O)[C@@H](NC(=O)[C@H](Cc1ccccc1)NC(=O)[C@H](CC(=O)O)NC(=O)[C@H](CCC(N)=O)NC(=O)[C@H](C)NC(=O)[C@H](CCCNC(=N)N)NC(=O)[C@H](CCCNC(=N)N)NC(=O)[C@H](CO)NC(=O)[C@H](CC(=O)O)NC(=O)[C@H](CC(C)C)NC(=O)[C@H](Cc1ccc(O)cc1)NC(=O)[C@H](CCCCN)NC(=O)[C@H](CO)NC(=O)[C@H](Cc1ccc(O)cc1)NC(=O)[C@H](CCCC(=O)O)NC(=O)[C@H](CO)NC(=O)[C@@H](NC(=O)[C@@H](N)Cc1ccccc1)[C@@H](C)O)C(C)C)C(=O)N[C@@H](CC(N)=O)C(=O)N[C@H](C(N)=O)[C@@H](C)O` [[hGlu^9]Glucagon(aa6-29)-NH2] (H-FTS[Aad]YSKYLDSRRAQDFVQWLMNT-NH2; N-terminus assumed), for which the “cAMP pA2” value (Table 9) was 6.27 ± 0.11.

Regarding “[PLA6, E9,E16K20(Lactam), C24(20 kDa)]G(6-29) ([PhLac]TSEYSKYLDERRAKDFVC(PEG 20 kDa)WLMNT; lactam 11-15)”, the “Glucagon antagonism IC50(nM) (inhibit 0.2-0.8 nM glucagon)” value is “Not detect”.

Consider “FTSDYSKYLDSRRAQDFVQWLMNT-NH2 [Glucagon(aa6-29)-NH2]”, for which the “cAMP pA2” value (Table 9) turned out to be 6.94 ± 0.63.

With `CSCC[C@H](NC(=O)[C@H](CC(C)C)NC(=O)[C@H](Cc1c[nH]c2ccccc12)NC(=O)[C@H](CCC(N)=O)NC(=O)[C@@H](NC(=O)[C@H](Cc1ccccc1)NC(=O)[C@H](CC(=O)O)NC(=O)[C@H](CCC(N)=O)NC(=O)[C@H](C)NC(=O)[C@H](CCCNC(=N)N)NC(=O)[C@H](CCCNC(=N)N)NC(=O)[C@H](CO)NC(=O)[C@H](CC(=O)O)NC(=O)[C@H](CC(C)C)NC(=O)[C@H](Cc1ccc(O)cc1)NC(=O)[C@H](CCCCN)NC(=O)[C@H](CO)NC(=O)[C@H](Cc1ccc(O)cc1)NC(=O)[C@H](CSCCC(=O)O)NC(=O)[C@H](CO)NC(=O)[C@@H](NC(=O)[C@@H](N)Cc1ccccc1)[C@@H](C)O)C(C)C)C(=O)N[C@@H](CC(N)=O)C(=O)N[C@H](C(N)=O)[C@@H](C)O` [[(CSA-2)^9]Glucagon(aa6-29)-NH2, [C^9(SCH2CH2COOH)]Glucagon(aa6-29)-NH2] (H-FTSC(CH2CH2COOH)YSKYLDSRRAQDFVQWLMNT-NH2; N-terminus assumed), the “cAMP pA2” value (Table 9) turned out to be 6.64 ± 0.29.

Regarding `CSCC[C@H](NC(=O)[C@H](CC(C)C)NC(=O)[C@H](Cc1c[nH]c2ccccc12)NC(=O)[C@H](CCC(N)=O)NC(=O)[C@@H](NC(=O)[C@H](Cc1ccccc1)NC(=O)[C@H](CC(=O)O)NC(=O)[C@H](CCC(N)=O)NC(=O)[C@H](C)NC(=O)[C@H](CCCNC(=N)N)NC(=O)[C@H](CCCNC(=N)N)NC(=O)[C@H](CO)NC(=O)[C@H](CC(=O)O)NC(=O)[C@H](CC(C)C)NC(=O)[C@H](Cc1ccc(O)cc1)NC(=O)[C@H](CCCCN)NC(=O)[C@H](CO)NC(=O)[C@H](Cc1ccc(O)cc1)NC(=O)[C@H](CCC(=O)O)NC(=O)[C@H](CO)NC(=O)[C@@H](NC(=O)[C@H](Cc1ccccc1)OC(=O)[C@@H](NC(=O)CNC(=O)[C@H](CCC(N)=O)NC(=O)[C@H](CO)NC(=O)[C@@H](N)Cc1c[nH]cn1)[C@@H](C)O)[C@@H](C)O)C(C)C)C(=O)N[C@@H](CC(N)=O)C(=O)N[C@H](C(N)=O)[C@@H](C)O` [[Thr5-O-PLA6,E9]Glucagon(1-29)] (H-HSQGT[PhLac]TSEYSKYLDSRRAQDFVQWLMNT-NH2; N-terminus assumed), half-maximal inhibition (Glucagon antagonism IC50(nM, inhibit 0.5nM G), Table 25) (IC50) required 14.2 ± 7.89 nM.

As to `CC(C)C[C@H](NC(=O)[C@H](Cc1ccc(O)cc1)NC(=O)[C@H](CCCCN)NC(=O)[C@H](CO)NC(=O)[C@H](Cc1ccc(O)cc1)NC(=O)[C@H](CCS(=O)(=O)O)NC(=O)[C@H](CO)NC(=O)[C@@H](NC(=O)[C@@H](NC(=O)CNC(=O)[C@H](CCC(N)=O)NC(=O)[C@@H](N)CO)[C@@H](C)O)[C@@H](C)O)C(=O)N[C@@H](CC(=O)O)C(=O)N[C@@H](CO)C(=O)N[C@@H](CCCNC(=N)N)C(=O)N[C@@H](CCCNC(=N)N)C(=O)N[C@@H](C)C(=O)N[C@@H](CCC(N)=O)C(=O)N[C@@H](CC(=O)O)C(=O)N[C@@H](Cc1ccccc1)C(=O)N[C@H](C(=O)N[C@@H](CCC(N)=O)C(=O)N[C@@H](Cc1ccccc1)C(=O)N[C@@H](CC(C)C)C(=O)N[C@@H](CC(C)C)C(=O)N[C@@H](CC(N)=O)C(=O)N[C@H](C(N)=O)[C@@H](C)O)C(C)C` [[desHis^1, desPhe^6, hCys^9(SO3−), Phe^25, Leu^27] Glucagon-NH2] (H-SQGTTS[Abu(4-SO3H)]YSKYLDSRRAQDFVQFLLNT-NH2; N-terminus assumed), the “glucagon antagonism, in words” value was “some level of antagonism”.
